{"source": "patent US11110117B2", "about": "“Skin preparation composition for external use containing complex hyaluronic acid” (J2KBIO CO., LTD., priority 2019, dated 2021)", "key": {"[1]": {"experiment": "Antioxidant effect (active oxygen scavenging) by NBT method", "type": "biochemical", "settings": "sample 0.1 weight %, absorbance 560 nm", "protocol": "In order to measure the antioxidant effect, active oxygen generated by xanthine and xanthine oxidase was measured by the NBT method, and an effect of removing active oxygen by a test substance, that is, the active oxygen scavenging effect was evaluated. Active oxygen was generated by xanthine and xanthine oxidase, and this active oxygen reacts with nitro blue tetrazolium (NBT). […] 0.1 ml of a xanthine oxidase solution was added and quickly stirred, culture at 25° C. for 20 minutes was started, 0.1 ml of a 6 mM CuCl2 solution was added to stop the reaction, and an absorbance St at 560 nm was measured. In a blank test, the same operation was performed in the same manner except that distilled water was used instead of the sample solution, and an absorbance Bt was measured. In a blank of the sample solution, the same operation was performed in the same manner except that the distilled water was used instead of xanthine oxidase, and an absorbance […] was measured. Inhibition rate (%)=[1−(St−So)/(Bt−Bo)]×100 <Equation 1> St: Absorbance at 560 nm after enzyme reaction of sample solution Bt: Absorbance at 560 nm after enzyme reaction of blank test solution So: Absorbance at 560 nm before reaction of sample solution in the absence of enzyme Bo: Absorbance at 560 nm before reaction of blank test solution in the absence of enzyme"}, "[2]": {"experiment": "Free radical scavenging activity by DPPH method", "type": "biochemical", "settings": "sample 0.1 weight %, 30 minutes at 37° C.", "protocol": "Each sample was prepared at the concentration of 0.1% to measure DPPH free radical scavenging activity. Each sample at the above concentration was introduced to a 96-well plate, and DPPH produced with a 100 uM methanol solution was added thereto, such that the total volume of the solution became 200 μl. The resultant was left for 30 minutes at 37° C., and an absorbance was measured at 560 nm. The free radical scavenging activity (%) was calculated by Equation 2 below. Free radical scavenging activity (%)=100−(B/A)×100 <Equation 2> A: Absorbance of control wells in the absence of sample treatment B: Absorbance of experimental wells with sample treatment"}, "[3]": {"system": "Human keratinocytes HaCaT cell lines", "experiment": "Intracellular active oxygen scavenging effect after UVB (DCFH-DA fluorescence)", "type": "cell-based", "settings": "sample 0.01 weight %, UVB 20 mJ/cm^2", "protocol": "Cell lines used in the experiment were the Human keratinocytes HaCaT cell lines distributed from Dr. Fusenig in German Cancer Research Center. […] Subsequently, 100 μl of HCSS treated for each concentration was added, and then the fluorescence of dichlorofluorescein (DCF) oxidized with active oxygen in the early stage was measured with a fluorescent plate reader (Ex; 485 nm, and Em; 530 nm). Subsequently, irradiation with UVB (20 mJ/cm^2) was performed, and the fluorescence after the sample treatment was measured by a fluorescent plate reader (Ex; 485 nm, and Em; 530 nm)."}, "MMP-1": {"system": "MMP-1", "experiment": "MMP-1 expression inhibition after UVA irradiation (ELISA)", "type": "cell-based", "settings": "retinol, concentration not given; human dermal fibroblasts, UVA 6.3 J/cm^2, 24 hours", "protocol": "Human dermal fibroblasts were irradiated with UVA at an energy of 6.3 J/cm^2 by using a UV chamber. With respect to UV irradiation dose and culture time, conditions for maximizing an MMP expression amount in fibroblasts were established by preliminary experiments. A negative control was wrapped in silver foil and kept for the same period of time in the UVA environment. A UVA emission amount was measured by using a UV radiometer. The cells during the UVA irradiation were the same medium inoculated before without change and were exchanged with a medium containing the samples after UVA irradiation. The medium was collected after culturing for 24 hours, and 96 wells were coated with the medium. A primary antibody (MMP-1 (Ab-5) monoclonal antibody) was treated and reacted at 37° C. for 60 minutes. After an anti-mouse IgG (whole mouse, alkaline phosphatase conjugated), which was a secondary antibody, was reacted again for about 60 minutes, the alkaline phosphatase substrate solution (1 mg/ml p-nitrophenyl phosphate in diethanolamine buffer solution) was reacted at room temperature for 30 minutes, and then an absorbance was measured at 405 nm with a plate reader. As a control, a medium to which the sample was not added was used."}, "type 1 procollagen": {"system": "type 1 procollagen", "experiment": "Type 1 procollagen biosynthesis promoting effect (procollagen type-1 C-peptide EIA)", "type": "cell-based", "settings": "sample 0.001 weight %; human dermal fibroblasts, 24 hours", "protocol": "Human dermal fibroblasts isolated from neonatal foreskin tissues were distributed from Modern Tissue Technology (MTT, Korea), and a 10% fetal bovine serum (FBS) was added to a medium of DMEM/F-12 (3:1) and cultured at the concentration of 1×10^4 cell/cm^2. At about 70% to 80% confluence, the cells were inoculated at a ratio of 1:3 and subcultured, and the cells subcultured for the third to fourth generations were used in the experiment.\nFor experiments to measure the amount of procollagen, the fibroblasts were cultured by more than 90% in a 48-well plate, and then each of […], and an amount of collagen isolated in the medium after 24 hours was measured by using a procollagen type-1 C-peptide EIA kit (MK101, Takara, Japan)."}}, "data": [{"compound": "Cc1cc(C(C)(C)C)c(O)c(C(C)(C)C)c1", "note": "[BHT, butylated hydroxytoluene]", "values": [{"measurement": "Antioxidant effect (active oxygen scavenging) (%)", "setting": "[1]", "value": 87, "unit": "%"}, {"measurement": "Free radical scavenging activity (%)", "setting": "[2]", "value": 81, "unit": "%"}]}, {"compound": "O=C(O[C@@H]1Cc2c(O)cc(O)cc2O[C@@H]1c1cc(O)c(O)c(O)c1)c1cc(O)c(O)c(O)c1", "note": "[EGCG]", "values": [{"measurement": "Active oxygen scavenging effect (%)", "setting": "[3]", "value": 45, "unit": "%"}]}, {"compound": "CC1=C(/C=C/C(C)=C/C=C/C(C)=C/CO)C(C)(C)CCC1", "note": "[Retinol, retinol]", "values": [{"measurement": "MMP-1 expression inhibition rate (%)", "setting": "MMP-1", "value": 38, "unit": "%"}]}, {"compound": "TGF-β", "values": [{"measurement": "Procollagen biosynthesis promoting effect (%)", "setting": "type 1 procollagen", "value": 35, "unit": "%"}]}]}
